Read-outs that look alike come from different tables or passages of the source.
Experiments:
[1] = molecular target: T1, OBP6 (Acyrthosiphon pisum, UniProt A0A8R1TDN2); assay: 1-NPN fluorescence competitive binding assay, OBP6
Method: (§1) All fluorescent measurements were undertaken using a Perkin-Elmer LS50B fluorescence spectrophotometer, using a 2 mL quartz cuvette, and the settings described below in Table 13, unless otherwise stated. Spectra were recorded using FL WinLab software.
(§2) Saturation of OBPs with fluorescent probe and 1-NPN (Sigma-Aldrich) was initially measured by titrating a 2 μM protein sample (2 mL in 25 mM Tris-HCl) with aliquots of 1 mM ligand (Sigma-Aldrich) in methanol to final concentrations of 1-16 μM. The fluorescence intensity at […] was recorded.
(§3) The competitive binding of ligands was measured by observing the intrinsic fluorescence of tryptophan. Titrations were performed with aliquots of 1 mM ligand in methanol to final concentrations of 1-20 μM, either after the addition of fluorescent probe to a final concentration of 1 μM or in the absence of fluorescent probe.
(§4) To generate KD values, relative fluorescence intensity was plotted against the concentration of ligand as a binding curve. KD values were generated in GraphPad Prism 7 using a non-linear regression and the inbuilt equation: […]

[2] = molecular target: T1, OBP6; assay: Fluorescent probe-free (intrinsic tryptophan fluorescence) binding assay, OBP6
Method: as §1, §3, §4

[3] = molecular target: OBP9 (Acyrthosiphon pisum, UniProt A0A8R1TD77); assay: 1-NPN fluorescence competitive binding assay, OBP9
Method: as §1, §2, §3, §4

[4] = OBP6, absence of fluorescent probe, non-linear regression, ± error, read-out: OBP6 Fluorescent Probe-Free Assay KD
[5] = OBP6 with 1-NPN fluorescent probe, non-linear regression, ± error, read-out: OBP6 1-NPN Assay KD
[6] = OBP9 with 1-NPN fluorescent probe, non-linear regression, ± error, read-out: OBP9 1-NPN Assay KD

T1 sequence (A0A8R1TDN2 1-160): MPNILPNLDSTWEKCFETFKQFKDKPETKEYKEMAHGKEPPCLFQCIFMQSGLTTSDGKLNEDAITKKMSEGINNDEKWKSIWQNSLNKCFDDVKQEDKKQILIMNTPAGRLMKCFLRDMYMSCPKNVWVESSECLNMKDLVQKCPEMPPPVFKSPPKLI
OBP9, sequence (A0A8R1TD77 1-165): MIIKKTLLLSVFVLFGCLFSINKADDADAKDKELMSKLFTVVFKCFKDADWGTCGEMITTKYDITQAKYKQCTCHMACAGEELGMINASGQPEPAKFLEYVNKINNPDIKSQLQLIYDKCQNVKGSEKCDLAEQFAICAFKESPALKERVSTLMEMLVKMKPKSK

SMILES	Kd [1] [µM]	Kd [2, 4] [µM]	Kd [1, 5] [µM]	Kd [3, 6] [µM]	Kd [2] [µM]	Kd [3] [µM]
C=CC(C)(O)CCC=C(C)C (racemic) [(R/S)-linalool]	8.95 ± 3.71	–	–	–	–	–
C=CC(=C)CC/C=C(\C)CCC=C(C)C [(E)-β-farnesene]	–	34.5 ± 10.9	10.1 ± 2.88	8.32 ± 2.67	–	–
CC1=CO[C@@H](O)[C@H]2[C@@H]1CC[C@@H]2C [Compound A, (1R,4aS,7S,7aR)-4,7-dimethyl-1,4a,5,6,7,7a-hexahydrocyclopenta[c]pyran-1-ol]	–	12.7 ± 2.31	2.62 ± 0.63	5.74 ± 1.71	–	–
CC1=COC(=O)[C@H]2[C@@H]1CC[C@@H]2C [Compound B, (4aS,7S,7aR)-4,7-dimethyl-5,6,7,7a-tetrahydrocyclopenta[c]pyran-1(4aH)-one]	–	1.9 ± 0.35	1.3 ± 0.6	6.49 ± 1.58	–	–
CC1=CO[C@H](O)[C@H]2[C@H](C)CC[C@@H]12 [Compound C, (1S,4aR,7R,7aS)-4,7-dimethyl-1,4a,5,6,7,7a-hexahydrocyclopenta[c]pyran-1-ol]	–	8.46 ± 1.62	2.65 ± 0.8	6.29 ± 1.99	–	–
CC1=COC(=O)[C@H]2[C@H](C)CC[C@@H]12 [Compound D, (4aR,7R,7aS)-4,7-dimethyl-5,6,7,7a-tetrahydrocyclopenta[c]pyran-1(4aH)-one]	4.37 ± 0.81	–	–	–	12 ± 4.24	9.68 ± 4.57

— US20230312476A1, “COMPOUNDS WITH SEMIOCHEMICAL PROPERTIES AND BIOSENSORS” (ROTHAMSTED RESEARCH LIMITED, priority 2020, published 2023)
